Patent US20090275099A1 (priority 2004, published 2009)
pEC50: −log10 of the molar value. Where two headings read alike, the source gives them in different places.

Key:
Ramos cells = experiment: antiproliferation, 72 h, 10% FBS; format: cell-based; conditions: Homo sapiens, read-out: ED50 for antiproliferation
Experimental: (§1) Like most 1,4-benzodiazepines, Bz-423 binds strongly to bovine serum albumin (BSA), which reduces the effective concentration of drug free in solution. For example, in tissue culture media containing 10% (v/v) fetal bovine serum (FBS), ca. 99% of the drug is bound to BSA. Therefore, cell culture cytotoxicity assays are conducted in media with 2% FBS to reduce binding to BSA and increase the free [Bz-423]. Under these conditions, the dose response-curve is quite sharp such that there is a limited concentration range at which Bz-423 is only partly effective. Since some benzodiazepines are known to have anti-proliferative properties, the effect of Bz-423 at concentrations <ED50 were carefully analyzed and observed that in addition to inducing apoptosis, Bz-423 prevented cell growth after 3 d in culture. In these low serum conditions, the cytotoxic and anti-proliferative effects overlapped making it difficult to study each effect independently. […] While higher amounts of drug may also block proliferation, it caused apoptosis well before the effects on proliferation could be observed.
(§2) To confirm the decrease in cell number relative to control cells after 3 d of treatment is due to decreased proliferation and not cell death balanced by proliferation, in addition to cell counting, cell divisions were studied. PKH-67 is a fluorescent probe that binds irreversibly to cell membranes and upon cell division is partitioned equally between the daughter cells, making it possible to quantify cell division by flow cytometry. Ramos cells stained with PKH67 and treated with Bz-423 had fewer cell divisions at sub-cytotoxic concentrations which confirmed that the decrease in cell number was due to anti-proliferative affects and not cell death. To determine if Bz-423 induced anti-proliferation was specific to Ramos cells, cell counting and cell cycle experiments were done in other B cell lines and cell lines derived from solid tumors.

[1] = test system: Ramos clones transfected to overexpress Bcl-2; experiment: antiproliferation, 72 h, 10% FBS; format: cell-based; conditions: Homo sapiens, Bcl-2, 72 h, read-out: ED50 for antiproliferation
Experimental: as §1, §2

[2] = test system: Ramos clones transfected to overexpress Bcl-xL; experiment: antiproliferation, 72 h, 10% FBS; format: cell-based; conditions: Homo sapiens, read-out: ED50 for antiproliferation
Experimental: as §1, §2

[3] = test system: malignant B cell line CA46; experiment: antiproliferation, 72 h, 10% FBS; format: cell-based; conditions: Homo sapiens, CA46, 72 h, read-out: ED50 for antiproliferation
Experimental: as §1, §2

[4] = test system: malignant B cell line Raji; experiment: antiproliferation, 72 h, 10% FBS; format: cell-based; conditions: Homo sapiens, read-out: ED50 for antiproliferation
Experimental: as §1, §2

[5] = test system: neuroblastoma cell line IMR-32; experiment: antiproliferation, 72 h, 10% FBS; format: cell-based; conditions: Homo sapiens, IMR-32, 72 h, read-out: ED50 for antiproliferation
Experimental: as §1, §2

[6] = test system: neuroblastoma cell line Lan-1; experiment: antiproliferation, 72 h, 10% FBS; format: cell-based; conditions: LAN1, Lan-1, 72 h, read-out: ED50 for antiproliferation
Experimental: as §1, §2

[7] = test system: neuroblastoma cell line SHEP-1; experiment: antiproliferation, 72 h, 10% FBS; format: cell-based; conditions: SH-EP1, SHEP-1, 72 h, read-out: ED50 for antiproliferation
Experimental: as §1, §2

[8] = test system: ovarian cells with null p53 (SKOV3); experiment: antiproliferation, 72 h, 10% FBS; format: cell-based; conditions: Homo sapiens, SK-OV-3, SKOV3, 72 h, read-out: ED50 for antiproliferation
Experimental: as §1, §2

F1F0-ATPase = F1F0-ATPase (Bos taurus, UniProt P13621+P32876); experiment: off-rate measurements, recovery of ATP synthesis of SMPs after dilution; format: biochemical, bovine
Experimental: Inhibition of Na,K-ATPases with oligomycin is time-dependent and results from a slow rate of dissociation from the enzyme (0.05 s^−1) (see, e.g., Esmann, M. (1991) Biochim. Biophys. Acta 1064, 31-36; herein incorporated by reference in its entirety). Since time-dependent inhibition can have profound effects on the function of the F1F0-ATPase, the off-rate of Bz-423 and oligomycin during ATP synthesis was examined. […] Inhibited SMP suspensions were diluted into buffer and activity was measured over time. Enzymatic activity of the SMPs incubated with Bz-423 had recovered to 90% of control at 10 s, indicating rapid dissociation (see, FIG. 18). In contrast, the activity of the enzyme incubated with oligomycin was only 54% of the uninhibited activity at 10 s, and increased for several minutes after dilution (see, FIG. 18). The time-dependence of the recovery of activity fit to a single exponential yielding an apparent dissociation rate constant for Bz-423>0.3 s^−1. However, dissociation of oligomycin was complex and a portion of the inhibitor dissociated at least 10-fold slower, consistent with a tight-binding, slow-dissociating inhibitor (see, e.g., Morrison, J. F., and Walsh, C. T. (1988) Adv. Enzymol. Relat. Areas Mol. Biol. 61, 201-301; herein incorporated by reference in its entirety). Presumably, the constraints of a high-affinity inhibitor dissociating from the membrane embedded proton channel presented a significant barrier for dissociation resulting in a slow off-rate.
Off-rate measurements. Rate of inhibition of ATP synthesis was measured as described above with the following changes. A 20 μL aliquot of SMPs (1 mg mL^−1) in synthesis buffer (with 10 mM K2HPO4) was added to each well of a 96-well plate containing 2.5 μL of 100× drug (14 μM Bz-423 and 35 nM oligomycin, final) or DMSO vehicle control. The drug was diluted out by adding 200 μL of synthesis buffer to each well. Substratecoupling mixture (25 μL with 1 mM ADP) was added to each well at the indicated time point and the rate of NADP^+ reduction was monitored over time.

`CN1C(=O)C(Cc2ccc3ccccc3c2)N=C(c2ccc(O)cc2)c2cc(Cl)ccc21` (centres unmarked) [Bz-423] gave a pEC50 (Ramos cells) of 4.97, a pEC50 [1] of 4.92 and a pEC50 [2] of 4.86. The pEC50 [3] was 4.87, the pEC50 [4] was 4.89 and the pEC50 [5] was 4.74. For the same compound, the pEC50 [6] was 4.86, the pEC50 [7] was 4.80 and the pEC50 [8] was 4.74. For the same compound, the “reduction of F1F0-ATPase activity at the concentration produced after dilution” value (F1F0-ATPase; 1.4 μM Bz-423, 3.5 nM oligomycin) was 10%, the activity at 14 µM (F1F0-ATPase; 14 μM Bz-423 or 35 nM oligomycin, read-out: ATP synthesis activity relative to that in the absence of inhibitor) was 27% and the “enzymatic activity recovered after dilution, % of control” value (F1F0-ATPase; at 10 s after dilution) was 90%. The koff (F1F0-ATPase; read-out: dissociation rate from the enzyme-substrate complex) was ~0.2 s⁻¹ and the koff (F1F0-ATPase; single exponential fit, read-out: apparent dissociation rate constant) was > 0.3 s⁻¹.
